Patent US11666549B2, “Regulation of cancer using natural compounds and/or diet” (UNIVERSITY OF FLORIDA RESEARCH FOUNDATION, INC., priority 2013, dated 2023)
“Also recorded” adds a separate entry of the source.

Columns and labels:
[1] = tested on: Colorectal adenocarcinoma cells (HT-29); experiment: NP on colon cancer cells in vitro, cell count; assay type: cell-based, human; settings: daily EGCG 8 μM, Curcumin 0.5 μM, sulforaphane 2.5 μM or all three; counted when controls confluent
Description: Once the control cultures became confluent, a cell count was performed.

[2] = tested on: hNSC; experiment: hNSC viability, MTT assay after neurosphere culture; assay type: cell-based, human; settings: 14 days culture, daily treatment; EGCG 8 μM, Curcumin 0.5 μM, SFN 2.5 μM or all three
Description: FIG. 33B) hNSC were plated at 20K cells per 100 ul of medium and cultured in the neurosphere assay for 14 days. […] After 14 days in culture, MTT assay was performed to measure cell viability.

[3] = tested on: Human breast cancer cells (ZR751); experiment: NP on breast cancer cell viability, MTT assay; assay type: cell-based; settings: daily EGCG 8 μM, Curcumin 0.5 μM, SFN 2.5 μM or combination; vs controls
Description: Human breast cancer cells (ZR751) were treated daily with EGCG (8 μM), Curcumin (0.5 μM) or SFN (2.5 μM) individually or in combination (NP). Once the control cultures became confluent, cell viability was measured using MTT assay.
Human breast cancer cells [ZR751] grown in culture and treated daily with physiological concentrations of either EGCG (8 μM), Curcumin (0.5 μM) or SFN (2.5 μM) or used in combination (NP).

[4] = tested on: Primary human GB stem cell lines; experiment: Daily fold expansion, NP and TMZ in vitro; assay type: cell-based; settings: in combination with TMZ; EGCG 8 μM, Curcumin 0.5 μM, SFN 2.5 μM or all three
Description: FIG. 11: Daily fold expansion—Effect of NP and TMZ in vitro. Primary human GB stem cell lines were treated daily for 4 out of 5 days in culture TMZ alone or in combination with EGCG (8 μM), Curcumin (0.5 μM), sulforaphane (2.5 μM) or a combination of all three (NP). Cells were passed after 5-7 days and cell counts performed. […] The stars (*) are compared to control, # to TMZ alone and $ to the different combinations of TMZ with each of the individual natural products. 1 symbol, p<0.05, 3 symbols, p<0.001, 1-way ANOVA.
Standard of care [SOC] for many solid tissue cancers involves the use of chemotherapy, which for many advanced or high grade tumors provides marginal benefit. Patient derived hGB cells were grown in culture and treated daily with the conventional drug temozolomide [TMZ, 20 μM] only or in combination with the following NPs:
[4] a combination of all three NPs
After 5-7 days in culture cells were counted and the mean daily fold expansion calculated.

[5] = tested on: Primary human GBM stem cell lines; experiment: NP in vitro fold expansion of hGB cells; assay type: cell-based; settings: EGCG 8 μM, Curcumin 0.5 μM, sulforaphane 2.5 μM or all three; daily for 4 out of 5 days; vs control
Description: Cells were passed after 5-7 days and cell counts were performed. […] Micrographs show cultures after 4 days of exposure to the different treatments.
Patient derived hGB cells were cultured under defined conditions using established protocols that allow the tumor cells to retain both their phenotypic and genotypic properties in vitro. hGB cell lines were treated with the following NPs:

[6] = tested on: Lung carcinoma cells (A549); experiment: NP on lung cancer cells in vitro, cell count; assay type: cell-based, human; settings: daily EGCG 8 μM, Curcumin 0.5 μM, sulforaphane 2.5 μM or all three; counted when controls confluent
Description: Once the control cultures became confluent a cell count was performed.

[7] = tested on: Patient derived hGB cells; experiment: Serial passage of hGB cells, growth and CSC expansion rate (Kll); assay type: cell-based, human; settings: 5 passages; EGCG 8 μM, curcumin 0.5 μM, SFN 2.5 μM or combination; vs control
Description: FIG. 10A) Patient derived hGB cells were serially passed in culture for 5 passages under a variety of treatment conditions. […] Human GB cells were cultured in the neurosphere assay over 5 passages during which CSC expansion rate was evaluated.
In a second experiment [FIG. 10], patient derived hGB cells were serially passed in culture while being treated with the following NPs:
[4] A combination of all three NPs

[8] = Non-tumor death, TMZ vs. mKD/NP; assay type: in vivo, mouse; settings: TMZ 20 mg/kg three times/week; mKD/NP diet; vs untreated controls
From the text: FIG. 5: Non-Tumor Death—TMZ vs. mKD/NP. Mortality rate unrelated to tumor was monitored during the course of treatments.

[9] = tested on: high-grade gliomas such as GB; settings: GB patients; cited from earlier work
[10] = Body weight, TMZ vs. mKD/NP; settings: after 4 days of treatment, TMZ 20 mg/kg
Description: FIG. 6: Body weight—TMZ vs. mKD/NP. Toxicity/safety of mKD/NP was compared to standard of care (TMZ, 20 mg/kg) by monitoring body weight after 4 days of treatment.
The first line chemotherapy for high grade gliomas is temozolomide [TMZ], which is an oral alkylating agent that damages DNA and triggers cell death. While TMZ is an effective chemotherapy agent it also has significant toxicity. Using the same subcutaneous model as noted in example 2, at the time of tumor presentation animals were randomly assigned to one of three groups: [1] control diet, no treatment; [2] control diet, SOC [TMZ, 20 mg/kg three times/week]; [3] mKD/NP diet.

Row | Compound | cell number [1] | cell viability (MTT) [2] | cell viability (MTT) [3] | mean daily fold expansion, natural product added to TMZ treatment [4] | mean daily fold expansion of GB cells [5] | cell number [6] | CSC self-renewing symmetric division rate (Kll) [7] | mortality from non-tumor related causes [8] | negative side effects [9] | body weight [10] | body weight ([10]; listed as SOC)
1 | COc1cc(/C=C/C(=O)CC(=O)/C=C/c2ccc(O)c(OC)c2)ccc1O [Curcumin, curcumin] | significant reduction in cell number | did not show any effect on the viability of hNSCs | no statistically significant effect on reducing the number of breast cancer cells; also recorded: none of the natural product showed statistically significant effect compared to controls | significant reduction in the mean daily fold expansion of hGB cells compared to control | significant reduction in mean daily fold expansion | do not show a statistically significant effect in reducing cell numbers | Only SFN or NP treated groups demonstrated significant decrease | – | – | – | –
2 | Cn1nnc2c(C(N)=O)ncn2c1=O [TMZ, temozolomide] | – | – | – | – | – | – | – | increase in mortality compared to the untreated controls | nausea, vomiting and hematological toxicity | significant loss of body weight compared to control and mKD/NP | significantly reduced
3 | C[S+]([O-])CCCCN=C=S (stereo not drawn) [SFN, sulforaphane] | significant reduction in cell number | did not show any effect on the viability of hNSCs | no statistically significant effect on reducing the number of breast cancer cells; also recorded: none of the natural product showed statistically significant effect compared to controls | enhanced this effect, with SFN demonstrating the greatest effect; also recorded: significant reduction in the mean daily fold expansion of hGB cells compared to control | significant reduction in mean daily fold expansion | – | significant decrease of CSCs self-renewing symmetric division rate compared to control | – | – | – | –
4 | epigallocatechin-3-gallate [EGCG] | significant reduction in cell number | did not show any effect on the viability of hNSCs | no statistically significant effect on reducing the number of breast cancer cells; also recorded: none of the natural product showed statistically significant effect compared to controls | enhanced this effect; also recorded: significant reduction in the mean daily fold expansion of hGB cells compared to control | significant reduction in mean daily fold expansion | do not show a statistically significant effect in reducing cell numbers | Only SFN or NP treated groups demonstrated significant decrease | – | – | – | –
